Values of other authors in patent US8987322B2, “Pharmaceutical formulations for carrier-mediated transport statins and uses thereof” (Circ Pharma Research and Development Limited, priority 2003, dated 2015).

Tests used:
[1] = system: LDL-C, HDL-C and triglyceride levels; conditions: Malinowski (1998)
HMG-CoA reductase = molecular target: T1, HMG-CoA reductase (Homo sapiens, UniProt P04035)
T1 sequence (P04035 1-888): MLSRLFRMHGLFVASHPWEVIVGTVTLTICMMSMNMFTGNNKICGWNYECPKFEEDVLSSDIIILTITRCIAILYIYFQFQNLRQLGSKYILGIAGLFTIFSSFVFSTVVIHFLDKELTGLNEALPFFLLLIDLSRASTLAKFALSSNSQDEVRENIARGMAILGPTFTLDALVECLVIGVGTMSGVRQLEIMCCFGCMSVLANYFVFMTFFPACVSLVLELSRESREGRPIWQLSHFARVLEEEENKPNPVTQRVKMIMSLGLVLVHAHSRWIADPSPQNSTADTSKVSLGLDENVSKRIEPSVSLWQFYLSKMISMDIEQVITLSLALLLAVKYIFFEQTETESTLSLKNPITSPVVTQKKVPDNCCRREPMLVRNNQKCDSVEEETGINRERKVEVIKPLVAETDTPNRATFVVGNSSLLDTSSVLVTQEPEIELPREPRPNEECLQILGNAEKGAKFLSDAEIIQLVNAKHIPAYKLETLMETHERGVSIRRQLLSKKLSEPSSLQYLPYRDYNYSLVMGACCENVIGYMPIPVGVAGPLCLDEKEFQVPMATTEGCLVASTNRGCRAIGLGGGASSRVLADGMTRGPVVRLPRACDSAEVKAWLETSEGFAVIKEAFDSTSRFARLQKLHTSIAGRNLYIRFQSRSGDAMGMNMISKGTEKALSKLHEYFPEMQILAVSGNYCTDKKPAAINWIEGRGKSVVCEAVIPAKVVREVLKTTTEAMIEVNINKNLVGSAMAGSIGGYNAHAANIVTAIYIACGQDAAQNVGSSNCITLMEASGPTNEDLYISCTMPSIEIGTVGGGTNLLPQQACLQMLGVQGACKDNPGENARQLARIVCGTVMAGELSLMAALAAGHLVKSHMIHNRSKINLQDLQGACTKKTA

[2] = like that found in the stomach
[3] = not given; remark: listed apart in the source
[4] = not given; remark: listed apart in the source
rat hepatocytes = conditions: White (2002), read-out: IC50, inhibition of sterol synthesis

Row | SMILES | reduction of LDL-C levels [1] | fraction of drug absorbed from the intestine taken up by the liver (first-pass) [%] | fraction of orally administered drug absorbed from the intestine (oral) | systemic availability of active inhibitors (parent drug and its metabolites) (oral) [%] | share of atorvastatin's inhibitory activity accounted for by its o-hydroxylated and p-hydroxylated metabolites (HMG-CoA reductase) | duration of HMG-CoA reductase inhibition (HMG-CoA reductase; due to the inhibitory activity of metabolites) [h] | stability in an acidic environment [2] | water solubility class as defined in the U.S. Pharmacopeia (2002) [3] | adverse effect at high doses ([4]; 80 mg and higher, phase III clinical trials) | tolerability in humans ([4]; doses ranging from 1 to 40 mg) | clearance through biliary excretion (Cheng-Lai (2003)) [%] | excreted in the urine (Cheng-Lai (2003)) [%] | hepatic extraction (share of the absorbed dose extracted by the liver) (Igel et al. (2002)) | dose dependence of Cmax and AUC (doses ranging from 5 to 80 mg) | elimination half-life (t1/2) (in vivo) [h] | effect of food on absorption (presence of food) | IC50 (rat hepatocytes) [nM] | share of the inhibitory activity due to the parent compound (HMG-CoA reductase; White (2002)) [%]
1 | CC(C)c1c(C(=O)Nc2ccccc2)c(-c2ccccc2)c(-c2ccc(F)cc2)n1CC[C@@H](O)C[C@@H](O)CC(=O)O [atorvastatin] | 40-60% | ≥ 70 | about 30% | 30 | approximately 70% | 20 to 30 |  |  |  |  |  |  |  |  |  |  |  | 
2 | CC[C@H](C)C(=O)O[C@H]1C[C@H](O)C=C2C=C[C@H](C)[C@H](CC[C@@H](O)C[C@@H](O)CC(=O)O)[C@H]21 [pravastatin] |  |  |  |  |  |  | unstable in an acidic environment |  |  |  |  |  |  |  |  |  |  | 
3 | CC(C)c1nc(N(C)S(C)(=O)=O)nc(-c2ccc(F)cc2)c1/C=C/[C@@H](O)C[C@@H](O)CC(=O)O (single isomer, unassigned) [rosuvastatin] |  |  |  |  |  |  | stable in acidic environments | sparingly soluble (“sparingly soluble” refers to an aqueous solubility that ranges from about 1/30 to about 1/100 (mg/ml)) | associated with myopathy | well tolerated | 90 | 10 | up to 90% | relatively linear relationship | 20 | overall extent of absorption remains constant | 0.16 | 90
